Measurements taken from patent US20090318690A1 (priority 2006, published 2009).
Where a name gives a salt, the structure may show the parent alone.

Assays:
[1] = target: T1, serotonin transporter (SERT) (Rattus norvegicus, UniProt P31652); experiment: Serotonin transporter binding inhibitory activity ([3H]paroxetine binding, rat cerebral cortex membrane fraction)
T1 construct: The rat cerebral cortex was homogenized in ice-cold 0.32 M sucrose; from tissue; host or cells: rat cerebral cortex membrane fraction
Experimental: Affinity of the test substance to a serotonin transporter (SERT) was determined by a test of inhibition of binding of [^3H]paroxetine selectively binding to SERT to a rat cerebral cortex membrane fraction by the test substance. Serotonin reuptake inhibitors are generally known to have SERT binding inhibitory activity. Based on the assumption that the intensity of SERT binding inhibitory activity of the test substance indicates the intensity of reuptake inhibitory activity, affinity of the test substance to SERT was determined and the intensity of the activity was estimated (according to the method described in Marcusson, J.; Eriksson, K; J. Neurochemistry, 1988, 51 (5), 1477).
The rat cerebral cortex was homogenized in ice-cold 0.32 M sucrose. The suspension was centrifuged at 1,000×g for 10 minutes. The resulting supernatant was further centrifuged at 20,000×g for 20 minutes. The resulting precipitate was suspended in 50 mM Tris-HCl (pH 7.4) containing 120 mM NaCl and 5 mM KCl (hereinafter called suspension A) and centrifuged at 20,000×g for 20 minutes. The same operation was repeated once more. The finally obtained precipitate was suspended in a suspension A having a wet weight about 100 times that of the rat cerebral cortex to prepare a membrane fraction which was stored at −80° C. until use.
An incubation mixture (0.5 mL) contained a solution obtained by further diluting the test substance dissolved in DMSO (dimethyl sulfoxide) to a desired concentration (control: only DMSO) 500-fold with purified water (25 μL); a [^3H]paroxetine solution (final concentration: 0.05 nM) as a ligand (25 μL); and the membrane fraction prepared as described above (450 μL). The reaction was started by addition of the membrane fraction, followed by incubation at room temperature for 90 minutes. After the incubation, the mixture was filtered by suction through a GF/B filter using a cell harvester. The filter was washed with 50 mM Tris-HCl (pH 7.4) and then radioactivity of [^3H]paroxetine binding to SERT was measured using a liquid scintillation counter. Binding detected in the presence of 1 or 10 μM fluoxetine was defined as non-specific binding.

acetylcholine esterase = target: T2, acetylcholine esterase (Rattus norvegicus, UniProt P37136); experiment: Acetylcholine esterase inhibitory activity (Ellman method); assay type: biochemical; conditions: supernatant of male Wistar rat cerebral homogenate; acetylthiocholine/DTNB, absorbance 412 nm; read-out: Acetylcholine esterase inhibition (IC50)
T2 construct: a centrifugation supernatant of a male Wistar rat cerebral homogenate as an acetylcholine esterase source; from tissue; host or cells: male Wistar rat cerebrum, Triton X-100 homogenate supernatant
T2 sequence (P37136 32-614): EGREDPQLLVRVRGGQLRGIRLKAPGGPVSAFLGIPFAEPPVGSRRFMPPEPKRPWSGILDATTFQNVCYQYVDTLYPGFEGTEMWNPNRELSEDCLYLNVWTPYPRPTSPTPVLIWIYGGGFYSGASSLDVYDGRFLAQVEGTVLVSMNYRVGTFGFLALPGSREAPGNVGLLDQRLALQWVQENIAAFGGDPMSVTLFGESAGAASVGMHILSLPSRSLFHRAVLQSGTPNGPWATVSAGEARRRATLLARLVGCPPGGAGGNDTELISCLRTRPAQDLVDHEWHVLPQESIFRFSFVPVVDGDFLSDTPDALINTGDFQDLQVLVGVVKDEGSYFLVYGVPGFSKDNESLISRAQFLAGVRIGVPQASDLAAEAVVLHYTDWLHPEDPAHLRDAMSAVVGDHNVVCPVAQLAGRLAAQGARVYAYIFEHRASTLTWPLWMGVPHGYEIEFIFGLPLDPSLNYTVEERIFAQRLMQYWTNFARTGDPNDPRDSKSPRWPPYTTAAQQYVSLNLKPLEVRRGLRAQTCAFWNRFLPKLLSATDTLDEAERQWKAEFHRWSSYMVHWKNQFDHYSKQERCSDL
Experimental: Esterase activity was measured according to the method of Ellman et al. (Biochem. Pharmacol., 1961, 7, 88-95) using a centrifugation supernatant of a male Wistar rat cerebral homogenate as an acetylcholine esterase source. First, a sample dissolved in dimethyl sulfoxide (DMSO) (10 mM) was dissolved in water to 30 μM, and eight serial dilutions were prepared at a common ratio of 3 with 30 μM as a highest concentration. Next, 18 times weight of a phosphate buffer [0.1 M phosphate buffer (0.1 M Na2HPO4, prepared from 0.1 M KH2PO4; pH 8.0) with 0.5% Triton X-100] was added to the rat cerebrum. The mixture was homogenized and centrifuged at 3000 rpm for five minutes. The supernatant was diluted 30-fold with a phosphate buffer (pH 8.0) and dispensed to a 96-well plate at 165 μL/well. 6 μL of the diluted sample was added, followed by preincubation at room temperature for about 10 minutes. Thereafter, 9 μL of a reaction mixture [10 mM 5,5′-dithiobis(2-nitrobenzoic acid) (DTNB)/0.1 M phosphate buffer (pH 7.0) with 6 μL of 0.15% NaHCO3+90 mM acetylthiocholine iodide/1 μL of H2O+2 μL of 0.1 M phosphate buffer (pH 8.0)] was added and the absorbance (412 nm) of anions (yellow) of 5-thio-2-nitrobenzoic acid generated by reaction of the produced thiocholine with DTNB anions was measured at room temperature. The acetylcholine esterase activity was determined from the change in absorbance between two minutes and four minutes after the start of the reaction. The inhibition rate (%) of the test compound was determined based on the acetylcholine esterase activity when the compound was not added as 100% and the 50% inhibition concentration (IC50) was calculated.

T1 sequence (P31652 whole entry): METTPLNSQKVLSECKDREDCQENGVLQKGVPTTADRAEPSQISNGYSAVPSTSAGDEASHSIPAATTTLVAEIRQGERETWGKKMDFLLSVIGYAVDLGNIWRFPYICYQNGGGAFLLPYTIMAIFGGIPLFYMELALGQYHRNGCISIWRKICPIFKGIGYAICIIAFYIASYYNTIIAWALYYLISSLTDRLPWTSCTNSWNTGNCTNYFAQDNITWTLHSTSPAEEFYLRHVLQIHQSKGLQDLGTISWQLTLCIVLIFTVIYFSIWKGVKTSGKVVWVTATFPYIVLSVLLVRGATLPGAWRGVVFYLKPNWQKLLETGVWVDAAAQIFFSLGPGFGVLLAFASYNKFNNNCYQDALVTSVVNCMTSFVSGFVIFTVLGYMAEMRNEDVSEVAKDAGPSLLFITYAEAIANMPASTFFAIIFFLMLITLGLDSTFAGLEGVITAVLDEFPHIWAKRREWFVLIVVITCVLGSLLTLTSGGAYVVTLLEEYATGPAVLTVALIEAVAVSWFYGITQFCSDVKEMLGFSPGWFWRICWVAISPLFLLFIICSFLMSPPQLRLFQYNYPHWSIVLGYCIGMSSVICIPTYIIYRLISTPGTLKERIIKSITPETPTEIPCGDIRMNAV

With `CN(C)Cc1c(OCc2ccc(C#N)cc2)ccc2c(CCC3CCN(Cc4ccccc4)CC3)noc12` [Example 153, 4-{3-[2-(1-Benzylpiperidin-4-yl)ethyl]-7-(N,N-dimethylaminomethyl)benz[d]isoxazol-6-yloxymethyl}benzonitrile dihydrochloride] the IC50 [1] was 0.3 nM and the IC50 (acetylcholine esterase) was 0.4 nM.
Work on `CN(C)Cc1c(OCC2CC2)ccc2c(CCC3CCN(Cc4c[nH]c5ccc(F)cc45)CC3)noc12` [Example 88, N,N-Dimethyl{6-cyclopropylmethoxy-3-{2-[1-(5-fluoro-1H-indol-3-ylmethyl)piperidin-4-yl]ethyl}benz[d]isoxazol-7-yl}methylamine dihydrochloride] yielded an IC50 [1] of 5.3 nM and an IC50 (acetylcholine esterase) of 7.7 nM.
Compound `CN(C)Cc1c(N2CCCCC2)ccc2c(CCC3CCN(Cc4ccc(C#N)s4)CC3)noc12` [Example 210, 5-{4-{2-[7-(N,N-Dimethylaminomethyl)-6-piperidinobenz[d]isoxazol-3-yl]ethyl}piperidinomethyl}thiophene-2-carbonitrile dihydrochloride] has an IC50 [1] of 12 nM and an IC50 (acetylcholine esterase) of 2.4 nM.
`CN(C)Cc1c(-c2ccccc2)ccc2c(CCC3CCN(Cc4ccccc4)CC3)noc12` [Example 120, N,N-Dimethyl{3-[2-(1-benzylpiperidin-4-yl)ethyl]-6-phenylbenz[d]isoxazol-7-yl}methylamine dihydrochloride] was tested, and the IC50 [1] was 0.9 nM and the IC50 (acetylcholine esterase) was 1.3 nM.
`CN(C)Cc1c(OCc2ccc(F)cc2)ccc2c(CCC3CCN(CC4OCCO4)CC3)noc12` [Example 22, N,N-Dimethyl{3-{2-[1-(1,3-dioxolan-2-ylmethyl)piperidin-4-yl]ethyl}-6-(4-fluorobenzyloxy)benz[d]isoxazol-7-yl}methylamine dihydrobromide] showed an IC50 [1] of 1.6 nM and an IC50 (acetylcholine esterase) of 4.1 nM.
In the case of `N#Cc1ccc(CN2CCC(CCc3noc4c(CN5CCC5)c(OCC5CC5)ccc34)CC2)s1` [Example 118, 5-{4-{2-[7-(Azetidin-1-ylmethyl)-6-cyclopropylmethoxybenz[d]isoxazol-3-yl]ethyl}piperidinomethyl}thiophene-2-carbonitrile fumarate], the IC50 [1] is reported as 10 nM and the IC50 (acetylcholine esterase) is reported as 12 nM.
`CN(C)Cc1c(OCC2CC2)ccc2c(CCC3CCN(Cc4ccc(C#N)s4)CC3)noc12` [Example 155, 5-{4-{2-[6-Cyclopropylmethoxy-7-(N,N-dimethylaminomethyl)benz[d]isoxazol-3-yl]ethyl}piperidinomethyl}thiophene-2-carbonitrile dihydrochloride] gave an IC50 [1] of 5.3 nM and an IC50 (acetylcholine esterase) of 5 nM.
`CN(C)Cc1c(OCC2CC2)ccc2c(CCC3CCN(CC4(CO)CCCC4)CC3)noc12` [Example 51, {1-{4-{2-[6-Cyclopropylmethoxy-7-(N,N-dimethylaminomethyl)benz[d]isoxazol-3-yl]ethyl}piperidinomethyl}cyclopentyl}methanol dihydrochloride] showed an IC50 [1] of 1.9 nM and an IC50 (acetylcholine esterase) of 3.6 nM.
Work on `CN(C)Cc1c(OCC2CC2)ccc2c(CCC3CCN(Cc4ccccc4)CC3)noc12` [Example 39, N,N-Dimethyl{6-cyclopropylmethoxy-3-[2-(1-benzylpiperidin-4-yl)ethyl]benz[d]isoxazol-7-yl}methylamine dihydrochloride] yielded an IC50 [1] of 13 nM and an IC50 (acetylcholine esterase) of 0.4 nM.
`CNCc1c2ccccc2cc2c(CCC3CCN(Cc4ccc(C#N)s4)CC3)noc12` [Example 152, 5-{4-{2-[9-(N-Methylaminomethyl)naphtho[2,3-d]isoxazol-3-yl]ethyl}piperidinomethyl}thiophene-2-carbonitrile dihydrochloride] was tested, and the IC50 [1] was 10 nM and the IC50 (acetylcholine esterase) was 4.9 nM.
With `CN(C)Cc1c(N2CCOCC2)ccc2c(CCC3CCN(Cc4ccc(C#N)s4)CC3)noc12` [Example 213, 5-{4-{2-[7-(N,N-Dimethylaminomethyl)-6-morpholinobenz[d]isoxazol-3-yl]ethyl}piperidinomethyl}thiophene-2-carbonitrile dihydrochloride] the IC50 [1] was 19 nM and the IC50 (acetylcholine esterase) was 3 nM.
In the case of `CN(C)Cc1c(OCC2CC2)ccc2c(CCC3CCN(CC4CCCc5sccc54)CC3)noc12` (centres unmarked) [Example 93, N,N-Dimethyl{6-cyclopropylmethoxy-3-{2-[1-(4,5,6,7-tetrahydrobenzo[b]thiophen-4-ylmethyl)piperidin-4-yl]ethyl}benz[d]isoxazol-7-yl}methylamine dihydrochloride], the IC50 [1] is reported as 8.9 nM and the IC50 (acetylcholine esterase) is reported as 73 nM.
Work on `CN(C)Cc1c2ccccc2cc2c(CCC3CCN(Cc4ccc(C#N)s4)CC3)noc12` [Example 151, 5-{4-{2-[9-(N,N-Dimethylaminomethyl)naphtho[2,3-d]isoxazol-3-yl]ethyl}piperidinomethyl}thiophene-2-carbonitrile dihydrochloride] yielded an IC50 [1] of 54 nM and an IC50 (acetylcholine esterase) of 33 nM.
Compound `CNCc1c(OCc2ccc(F)cc2)ccc2c(CCC3CCN(CC4OCCO4)CC3)noc12` [Example 78, N-Methyl{3-{2-[1-(1,3-dioxolan-2-ylmethyl)piperidin-4-yl]ethyl}-6-(4-fluorobenzyloxy)benz[d]isoxazol-7-yl}methylamine dihydrochloride] has an IC50 [1] of 1.1 nM and an IC50 (acetylcholine esterase) of 0.7 nM.
For `CN(C)Cc1ccc2c(CCC3CCN(Cc4ccccc4)CC3)noc2c1OCC1CC1` [Example 178, N,N-Dimethyl{3-[2-(1-benzylpiperidin-4-yl)ethyl]-7-cyclopropylmethoxybenz[d]isoxazol-6-yl}methylamine dihydrochloride], the IC50 [1] was 62 nM and the IC50 (acetylcholine esterase) was 4.1 nM.
`CN(C)Cc1c(OCc2ccc(C#N)cc2)ccc2c(CCC3CCN(CC4OCCO4)CC3)noc12` [Example 154, 4-{7-(N,N-Dimethylaminomethyl)-3-{2-[1-(1,3-dioxolan-2-ylmethyl)piperidin-4-yl]ethyl}benz[d]isoxazol-6-yloxymethyl}benzonitrile fumarate] showed an IC50 [1] of 1 nM and an IC50 (acetylcholine esterase) of 3 nM.
